Here are results for 6 compounds from article PMC8321398, “The discovery of a novel series of compounds with single-dose efficacy against juvenile and adult Schistosoma species” (PLoS Neglected Tropical Diseases, 2021).

For data set [1], the system named is S. mansoni infections. Set-up: method as in PMID 29126136. The conditions noted are these: cited from earlier work.
In data set [2] the test system is S. haematobium. Set-up: method as in PMID 28126024. The conditions noted are these: 40 mg/kg; cited from earlier work.
Data set [3] concerns S. mansoni juvenile worms. Particulars: cited from earlier work.
In data set [4] the test system is S. mansoni. Set-up: method as in PMID 28126024. The conditions noted are these: 40 mg/kg; cited from earlier work.
In data set [5] the test system is S. japonicum. Set-up: method as in PMID 28126024. The conditions noted are these: 40 mg/kg; cited from earlier work.
The nature of data set [6]: Plasma protein binding in human plasma at 10 uM, equilibrium dialysis. The format is in vitro ADME. How it is done: (§1) Each experiment was performed in duplicate for the compound being tested. A working solution of compound was prepared from 10 μL of 10 mM solution in DMSO + 190 μL 40:60 MeCN:Water. A Total solution was prepared from 12 μL of working solution + 588 μL plasma (compound conc: 10 μM, DMSO: 0.1%, ACN:0.76%). In an equilibrium dialysis chamber, Total solution (200 μL) was added to the plasma chamber and PBS pH 7.4 (350 μL) was added to the buffer chamber. The chamber was then incubated at 37°C for 6 h with constant shaking at 400 rpm (Thermomixer comfort, Eppendorf). Aliquots were removed from both plasma and buffer chambers and the following test samples prepared: Blank: blank Plasma (20 μL) + blank buffer (60 μL), Buffer: blank plasma (20 μL) + test buffer (60 μL), Plasma: test plasma (20 μL) + blank buffer (60 μL), Total: total sample (20 μL) + blank buffer (60 μL). Ice-cold acetonitrile (160 μL), containing a suitable standard was added to all samples, they were shaken vigorously and centrifuged at 4,000 rpm for 20 min at 15°C. Supernatant (110 μL) from each sample was diluted with water (110 μL) and the sample analysed by LC-MS/MS.
(§2) % Free = 100 × (AREA in buffer × dilution factor)/(AREA in Plasma × dilution factor)
(§3) % Recovery = 100 ×[(Avg AREA in buffer × dilution factor) + (Avg AREA in Plasma × dilution factor)] / (Avg AREA in Total × dilution factor)
On the technique in general: Equilibrium dialysis compares concentrations on both sides of a semipermeable membrane.

The nature of data set [7]: Plasma protein binding in mouse plasma at 10 uM, equilibrium dialysis. Type of data set: in vitro ADME. The protocol: as §1, §2, §3
The subject of data set [8] is HepG2 cells. The data set can be described thus: Cytotoxicity, HepG2 cells with MTT. The format is cell-based, human. The conditions noted are these: Table 2; hepG2 cell line, 72 h incubation. How it is done: Activity against mammalian cells was determined using either of two standard assays. The first of these used MRC-5 cells with Alamar blue staining as previously described. The second used HepG2 cells monitored using 3-(4,5-dimethylthiazol-2-yl)-2,5-diphenyltetrazolium bromide (MTT) as previously described.

A short description of data set [9]: Metabolic stability in human hepatocytes. Type of data set: in vitro ADME. Particulars: hepatocytes (suspension), pH 7.4, 90 min incubation, read-out: Human hepatocyte % remaining at 90 min. The protocol: (§4) 100 μM compound stock solution was prepared from 5 μL of 4 mM stock in DMSO + 195 μL MeCN. Working solution (2 μM compound) was prepared using 10 μL of 100 μM stock + 490 μL buffer pH 7.4 (KHB supplemented with CaCl2, NaHCO3, HEPES, fructose, glycine; pH 7.4).
(§5) Working solution (25 μL, 2 μM) was added in duplicate to wells in a 0.5 mL per well, 96 well plate which was preincubated to reach 37°C. Hepatocyte suspension (25 μL) was added to each plate, and the plate incubated (37°C, 95% relative humidity with 5% CO2 supply) under gentle mixing (Thermomixer @300 rpm). After designated time periods, ice-cold MeCN (250 μL) was added with a suitable standard. For T = 0 min, ice-cold MeCN (250 μL) with suitable standard was added to the working solution (2 μM) and hepatocyte suspension (25 μL) added. The plates for each time point were shaken, sonicated for 5 mins and kept at 4°C until the final plate was processed. The plates were centrifuged at 4,000 rpm for 20 min, supernatant (110 μL) was mixed with water (110 μL) and the samples analysed using LC-MS/MS.

Data set [10] is described as follows: Kinetic solubility. The format is physicochemical. From the text: Table 4 in vitro, physicochemical and in vivo properties of compounds pictured in Fig 10. | column: Measured physicochemical properties / Kinetic solubility, pH 7.4 (uM); Measured physicochemical properties / Kinetic solubility, FaSSIF (uM); Measured physicochemical properties / Kinetic solubility, FeSSIF (uM)

Data set [11] relates to Adult S. mansoni. The data set can be described thus: In vitro adult S. mansoni worm assay. Type of data set: cell-based. Particulars: Schistosoma mansoni, 120 h incubation. An excerpt: (§6) The Puerto Rican strain of S. mansoni was maintained in Biomphalaria glabrata and CD1 mice. Oncomelania hupensis (hupensis) infected with S. japonicum (Chinese strain) and Bulinus truncatus (truncatus) infected with Egyptian strain S. haematobium were obtained from BEI Resources, NIAID, NIH. Infection of mice for worm recovery was as previously described except that, whereas cercariae of S. mansoni and S. haematobium were obtained by shedding from infected snails under lights, cercariae of S. japonicum were obtained by gently crushing the snails. Furthermore, adult S. haematobium were recovered after 12 weeks following mouse infection.
(§7) In vitro efficacy was carried out as previously described. In brief, worms were recovered from infected mice by portal perfusion 3 weeks (for juveniles) or 6 weeks (for adults) post-infection using warm perfusion medium (Dulbecco’s Modified Eagle’s Medium [DMEM], 2mM L-glutamine, 100 Units/ml penicillin, 100μg/ml streptomycin, 20mM Hepes, 10 Units/ml heparin [Sigma, UK]). Worms were washed free of red blood cells using the perfusion medium, and finally suspended in complete medium (cDMEM: DMEM, 2mM L-glutamine, 100 Units/ml penicillin, 100μg/ml streptomycin, 10% FCS). The juvenile assays were carried out in 96-well plates, each well containing 6–8 worms in 200 μL cDMEM. The adult worm assay was in 24-well plates, each well containing 3 worm pairs in 1mL cDMEM. Both the juvenile and adult worm cultures were kept at 37° C, in an atmosphere of 5% CO2. Drug effects were determined on day 5 following drug treatment by assessing the viability of individual worms as described in [14].

Data set [12] is described as follows: Metabolic stability in mouse hepatocytes. The format is in vitro ADME. The conditions noted are these: hepatocytes (suspension), pH 7.4, 90 min incubation, read-out: Mouse hepatocyte % remaining at 90 min. The protocol: as §4, §5
Data set [13] has as its system Juvenile S. mansoni. Description: In vitro juvenile (3 week old) S. mansoni worm assay. The conditions noted are these: Schistosoma mansoni; Table 2; in vitro, 120 h incubation. The format is cell-based.
Text: as §6, §7

Data set [14] in a line: Mouse pharmacokinetics.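 For all read-outs here: three mice per experiment, dosed in 10% DMSO with 50 mM Na2HPO4 buffer plus Tween-80, plasma levels quantified by LC-MS against a calibration line prepared in blank matrix.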 Type of data set: in vivo. Particulars: for Clobs / AUC(0-inf) / Vd / half-life: 0.5 mg/kg iv, in a mixture of 5 compounds; for AUC(0-inf) / Vd / bioavailability / half-life: male, Swiss albino, plasma; for Vd: read-out: Vss; for bioavailability: 2.5 mg/kg oral, mixture of 5 compounds, calculated values > 100% shown as 100; for half-life: iv, 0.5 mg/kg, sampled over 24 h.
Protocol: Routine pharmacokinetics was carried out as previously described [24] with the following modifications: Swiss albino male mice of average weight 30 g with three animals per experiment. The final vehicle was 10% DMSO, 90% 50 mM Na2HPO4 with 0.5% Tween-80. Compounds were dosed singly (at a variety of doses as noted in the text) or more commonly in mixtures of 5 at 1 mg/kg per compound iv into the lateral tail vein or 2.5 mg/kg per compound by oral gavage. ~30 μl blood samples were taken by venepuncture, into heparinized capillary tubes and subsequently transferred into 0.5 ml micro-centrifuge tubes. Collection time points were 5 min (iv only), 15 min, 30 min, 1 h, 2 h, 4 h, 8 h & 24 h. All blood samples were processed for plasma by centrifugation at 4,000 rpm for 10 min at 4°C within half an hour of collection. Plasma samples were stored at -20°C until bioanalysis.
Prior to LC-MS analysis, all samples were extracted using protein precipitation using acetonitrile as the extraction solvent. For each batch of samples, a calibration line spanning an appropriate concentration range was created by spiking the compound of interest into blank matrix. The calibration line included 10 evenly spaced points. […] Where necessary, additional dilution QCs were included to validate the dilution process. Within each batch at least 3 study samples were assayed pre and post dilution to assess whether there was any impact from the presence of dosing vehicle in the samples. A linear regression was performed on peak area response ratios (analyte:IS) and the results used to back-calculate analyte concentrations. A batch of samples were considered acceptable if 75% of the calibration samples and 66% of the standard QC samples were within 20% of nominal. The linear range of the assay was defined by the calibration line ±20% i.e. the maximum reportable concentration was 120% of the highest concentration calibration sample that passed acceptance criteria. A metric plot of the IS response was reviewed to ensure the integrity of the study sample data.

Data set [15] deals with S. mansoni juvenile worms. Description: In vivo efficacy, mouse model of juvenile (21-day old) S. mansoni infection. The conditions noted are these: mouse, Juvenile infection, oral 50 mg/kg, formulation corn oil. The protocol:
(§8) Prior to in vivo efficacy experiments, a single animal was given a dose of drug (using the same formulation) that was twice as large as that planned for use in the efficacy experiments and was observed periodically for adverse clinical signs for 24h by trained veterinarians. Adverse clinical signs checked include postural defect, vocalization, oculo-nasal discharge, hypersalivation, change in activity, abnormal gait, respiration and pulse, piloerection, loss of pupillary reflex, eyelid reflex, chromodacryorrhea, reaction to handling, tremor, convulsions, prostration, diarrhoea, cachexia, emaciation. […] In vivo efficacy was assessed in female CD1 mice using methods based on those previously described. Mice were infected subcutaneously with 150 cercariae. Test compounds were suspended in 7% Tween-80 / 3% Ethanol / double distilled water and drug dispersal was facilitated by vortexing and using a sonicating water bath (Formulation “Aqueous”). Alternatively, drugs were first dissolved in DMSO, then diluted with corn oil to give a 1:19 DMSO:corn oil solution/suspension of test compound (Formulation “Corn oil”). Dosing was by oral gavage. Mice in the negative control groups were given the drug suspension vehicle only. Positive controls for treatment of adult, day 42 old, infections were treated with PZQ and those for juvenile, day 21 old, infections with artemether, which unlike PZQ is effective against the juvenile worm infections in mice. During and following treatment, mice were closely observed for any ill effects by staff experienced in animal handling. This involved individuals who were blinded to the treatment groups. Effects they were trained to look for included hunching, immobility, piloerection, subdued behaviour, diarrhoea and loss of body condition. None were seen. Worms were recovered by portal perfusion with citrate saline 8–14 days post treatment and counted. Differences between groups relative to the non-drug treated controls were assessed for statistical significance by Student’s unpaired t-test using GraphPad Prism Software. P values are presented as follows:- ns–P > 0.05 (not significant), * P ≤ 0.05, ** P ≤ 0.01, *** P ≤ 0.001, **** P ≤ 0.0001.
(§9) For pharmacokinetic analysis during the in vivo efficacy experiments individual animals were only sampled once. Samples were taken from one animal in each experimental group at each of 1, 4, 8 h and samples from two animals in each group were taken at 24 h.

Test in data set [16]: as above
The conditions noted are these: female, CD1, plasma; mouse, Juvenile infection, oral 50 mg/kg, formulation corn oil; read-out: Plasma conc @24 h (efficacy experiment). The protocol:
as §8, §9

Data set [17] relates to S. japonicum adult. Description: In vitro adult S. japonicum worm assay. The format is cell-based.
Text: as §6, §7

Setting [18] is: Table 2, in vitro, read-out: Adult S. mansoni EC50.

Converted amounts (≈) assume the structure as drawn. Where two headings read alike, the source gives them in different places.

On to `CC(C)NCC1CCc2cc(CO)c([N+](=O)[O-])cc2N1` (stereo not drawn) [oxamniquine], for which the “efficacy against S. mansoni infections” value in data set [1] is listed as “effective”.

With `O=C(C1CCCCC1)N1CC(=O)N2CCc3ccccc3C2C1` (stereo not drawn) [PZQ, Praziquantel], the “cure rate in children” value is given as 73.6% in [2], 76.4% in data set [4] and 95.3% in data set [5]. Further, the “activity against the juvenile stages” value in data set [3] (both in vivo and in vitro) is given as “relatively ineffective”.

Regarding `CO[C@H]1O[C@@H]2O[C@@]3(C)CC[C@H]4[C@H](C)CC[C@@H]([C@H]1C)[C@@]24OO3` [artemether], the “efficacy against the juvenile worm infections in mice” value in [3] (mice) was “effective”.

Consider `CC(C)Oc1cc(-c2cn3c(-c4ccc5[nH]ncc5c4F)c(C(F)(F)F)nc3cn2)ccc1F` [LSHTM-3690], for which, in data set [6], the “Human plasma protein %binding” value is 99.925%. The same compound displayed a recovery at 6 h, 10 µM in data set [6] (human, human plasma, pH 7.4) of 89%. For the same compound, the “Mouse plasma protein %binding” value in [7] was found to be 99.8775%. Further, the recovery at 6 h, 10 µM in [7] (mouse, mouse plasma, pH 7.4) was 93.9%. Moreover, the “Cytotox TC50” value in data set [8] is listed as 9,250 nM. Also, the share remaining at 1.5 h, 1 µM in data set [9] is 79%. In addition, in data set [10] (FaSSIF, pH 6.5, read-out: Kinetic solubility, FaSSIF), the kinetic solubility at 24 h came out at 188 µM (≈ 89 µg/mL). Further, in [10] (FeSSIF, pH 5, read-out: Kinetic solubility, FeSSIF), the solubility (kinetic) at 24 h was 196 µM (≈ 92.8 µg/mL). In data set [11] (setting [18]), the EC50 is 9 nM. Also, the fraction remaining at 1.5 h, 1 µM in [12] was 31%. In data set [13], the EC50 came to 11.1 nM. Moreover, in data set [14], the Clobs amounted to 24.5 mL/min/kg, the AUC(0-inf) amounted to 300 ng·h/mL, the Vd came out at 5 L/kg and the bioavailability was 100%. For the same compound, the half-life in [14] was 4.6 h.

Regarding `CC(C)c1cc(-c2cn3c(-c4ccc5[nH]ncc5c4F)c(C(F)(F)F)nc3cn2)ccc1F` [LSHTM-3661], the “Cytotox TC50” value in data set [8] is on record as 17,000 nM. Besides, the share remaining at 1.5 h, 1 µM in data set [9] worked out at 45%. Further, the kinetic solubility at 24 h in [10] (pH 7.4, read-out: Kinetic solubility, pH 7.4) turned out to be 0.04 µM (≈ 0.0183 µg/mL). Also, the EC50 in [11] (setting [18]) came to 2.3 nM. Besides, in [11] (Table 3, S. mansoni, read-out: Sm adult EC50), the EC50 is 2.3 nM. Also, the amount remaining at 1.5 h, 1 µM in [12] was determined as 78%. This compound also showed a Worms remaining in data set [15] of 0%. In [16], the concentration at 24 h is 178 ng/mL. The compound also returned an EC50 in data set [13] of 2.7 nM. In addition, in [14], the Clobs amounted to 31.3 mL/min/kg, the area under the curve AUC(0-inf) amounted to 300 ng·h/mL, the Vd turned out to be 5.6 L/kg and the bioavailability is 57.1%. The half-life in data set [14] was 4.5 h. Further, the EC50 in [17] (Schistosoma japonicum, S. japonicum, 120 h incubation, read-out: Sj adult EC50) stood at 24.8 nM. Further, the “Potency ratio Sj/Sm” value in [17] (adult EC50 S. japonicum / S. mansoni) was 10.9.

Regarding `CC(C)c1nn2cnc(-c3ccc(F)c(C(F)(F)F)c3)cc2c1-c1ccc2[nH]ncc2c1F` [LSHTM-3644], in data set [11] (setting [18]), the half-maximal effective concentration (EC50) amounted to 40 nM. The EC50 in [13] was found to be 60 nM. Further, in data set [14], the Clobs came to 6.33 mL/min/kg, the AUC(0-inf) was 1330 ng·h/mL, the Vd is 2.4 L/kg and the bioavailability is 76%. Besides, the half-life in data set [14] was 6.3 h.

As usually defined, the fraction remaining is what is left of the initial amount, in per cent. The term kinetic solubility denotes solubility judged after dilution from a stock solution rather than from solid. By EC50 is commonly meant the concentration at which the effect is half-maximal. The AUC(0-inf) is total exposure, with the tail of the curve extrapolated. The bioavailability is the share of a dose that reaches the circulation, judged against a reference dose that is usually intravenous. A word on the half-life: it is the time needed for the level to fall by half in the phase considered.
